Source: US8802597B2, “Herbicidal pyrimidines” (E I du Pont de Nemours and Company, priority 2003, dated 2014)

What was measured:
Test in all cases: Test C pre/postemergence
Assay type in all cases: in vivo
[1] = test system: cocklebur (Xanthium strumarium); conditions: for Cocklebur plant response rating: scale 0 to 100 (0 no effect, 100 complete control)
Method in brief: (§1)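 Greenhouse pot test: seeds treated preemergence, or plants at 2–18 cm (1- to 4-leaf stage) treated postemergence, with compound in non-phytotoxic solvent plus surfactant. Visual rating versus untreated controls after 12–14 days, scale 0 (no effect) to 100 (complete control); dash means not tested.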

[2] = test system: corn (Zea mays); conditions: for Corn plant response rating: scale 0 to 100 (0 no effect, 100 complete control); for Plant response rating, Corn: scale 0 to 100
Method in brief: as §1

[3] = test system: Surinam grass (Brachiaria decumbens); conditions: for Surinam Grass plant response rating: scale 0 to 100 (0 no effect, 100 complete control)
Method in brief: as §1

[4] = test system: crabgrass (Digitaria sanguinalis); conditions: for Crabgrass plant response rating: scale 0 to 100 (0 no effect, 100 complete control)
Method in brief: as §1

[5] = test system: lambsquarters (Chenopodium album); conditions: for Lambsquarters plant response rating: scale 0 to 100 (0 no effect, 100 complete control)
Method in brief: as §1

[6] = test system: johnsongrass (Sorghum halepense)
Method in brief: as §1

[7] = test system: common (oilseed) sunflower (Helianthus annuus); conditions: Preemergence
Method in brief: as §1

[8] = test system: kochia (Kochia scoparia); conditions: for Kochia plant response rating: scale 0 to 100 (0 no effect, 100 complete control)
Method in brief: as §1

[9] = test system: giant foxtail (Setaria faberii); conditions: for Foxtail, Giant plant response rating: scale 0 to 100 (0 no effect, 100 complete control)
Method in brief: as §1

[10] = test system: morningglory (Ipomoea coccinea); conditions: for Morningglory plant response rating: scale 0 to 100 (0 no effect, 100 complete control)
Method in brief: as §1

[11] = test system: eastern black nightshade (Solanum ptycanthum); conditions: Preemergence
Method in brief: as §1

[12] = test system: soybean (Glycine max); conditions: for Soybean plant response rating: scale 0 to 100 (0 no effect, 100 complete control)
Method in brief: as §1

[13] = Postemergence, 250 g ai/ha, scale 0 to 100
[14] = Postemergence, 500 g ai/ha, scale 0 to 100
[15] = Preemergence, 62 g ai/ha, scale 0 to 100, 0 no effect, 100 complete control
[16] = Preemergence, 125 g ai/ha, scale 0 to 100
[17] = Preemergence, 250 g ai/ha, scale 0 to 100
[18] = Preemergence, 500 g ai/ha, scale 0 to 100
[19] = 62 g ai/ha, scale 0 to 100, 0 no effect, 100 complete control

## CNN=Cc1nc(C2CC2)nc(N)c1Br [Compound 49]
[1]; Postemergence, 62 g ai/ha
  Cocklebur plant response rating: 75
[1]; Postemergence, 125 g ai/ha
  Cocklebur plant response rating: 95
[1]; [13]
  Plant response rating, Cocklebur: 95
[1]; [14]
  Plant response rating, Cocklebur: 95
[1]; [15]
  Plant response rating, Cocklebur: 20
[1]; [16]
  Plant response rating, Cocklebur: 95
[1]; [17]
  Plant response rating, Cocklebur: 95
[1]; [18]
  Plant response rating, Cocklebur: 100
[2]; Postemergence, 62 g ai/ha
  Corn plant response rating: 0
[2]; Postemergence, 125 g ai/ha
  Corn plant response rating: 0
[2]; Postemergence, 250 g ai/ha
  Plant response rating, Corn: 20
[2]; Postemergence, 500 g ai/ha
  Plant response rating, Corn: 25
[2]; Preemergence, 125 g ai/ha
  Plant response rating, Corn: 15
[2]; Preemergence, 250 g ai/ha
  Plant response rating, Corn: 15
[2]; Preemergence, 500 g ai/ha
  Plant response rating, Corn: 65
[3]; Postemergence, 62 g ai/ha
  Surinam Grass plant response rating: 0
[3]; Postemergence, 125 g ai/ha
  Surinam Grass plant response rating: 0
[3]; [13]
  Plant response rating, Surinam Grass: 40
[3]; [14]
  Plant response rating, Surinam Grass: 45
[3]; [15]
  Plant response rating, Surinam Grass: 0
[3]; [16]
  Plant response rating, Surinam Grass: 15
[3]; [17]
  Plant response rating, Surinam Grass: 40
[3]; [18]
  Plant response rating, Surinam Grass: 65
[4]; Postemergence, 62 g ai/ha
  Crabgrass plant response rating: 0
[4]; Postemergence, 125 g ai/ha
  Crabgrass plant response rating: 65
[4]; [13]
  Plant response rating, Crabgrass: 75
[4]; [14]
  Plant response rating, Crabgrass: 95
[4]; [15]
  Plant response rating, Crabgrass: 95
[4]; [16]
  Plant response rating, Crabgrass: 95
[4]; [17]
  Plant response rating, Crabgrass: 95
[4]; [18]
  Plant response rating, Crabgrass: 100
[5]; Postemergence, 62 g ai/ha
  Lambsquarters plant response rating: 70
[5]; Postemergence, 125 g ai/ha
  Lambsquarters plant response rating: 90
[5]; [13]
  Plant response rating, Lambsquarters: 95
[5]; [14]
  Plant response rating, Lambsquarters: 95
[5]; [15]
  Plant response rating, Lambsquarters: 100
[5]; [16]
  Plant response rating, Lambsquarters: 100
[5]; [17]
  Plant response rating, Lambsquarters: 100
[5]; [18]
  Plant response rating, Lambsquarters: 100
[6]; Postemergence, 125 g ai/ha, scale 0 to 100 (0 no effect, 100 complete control)
  Johnsongrass plant response rating: 20
[6]; [13]
  Plant response rating, Johnsongrass: 35
[6]; [14]
  Plant response rating, Johnsongrass: 70
[6]; [15]
  Plant response rating, Johnsongrass: 45
[6]; [16]
  Plant response rating, Johnsongrass: 65
[6]; [17]
  Plant response rating, Johnsongrass: 80
[6]; [18]
  Plant response rating, Johnsongrass: 85
[7]; [19]
  Plant response rating, Sunflower: 15
[7]; 125 g ai/ha, scale 0 to 100
  Plant response rating, Sunflower: 75
[7]; 250 g ai/ha, scale 0 to 100
  Plant response rating, Sunflower: 100
[7]; 500 g ai/ha, scale 0 to 100
  Plant response rating, Sunflower: 100
[8]; Postemergence, 62 g ai/ha
  Kochia plant response rating: 20
[8]; Postemergence, 125 g ai/ha
  Kochia plant response rating: 45
[8]; [13]
  Plant response rating, Kochia: 95
[8]; [14]
  Plant response rating, Kochia: 100
[8]; [15]
  Plant response rating, Kochia: 100
[8]; [16]
  Plant response rating, Kochia: 100
[8]; [17]
  Plant response rating, Kochia: 100
[8]; [18]
  Plant response rating, Kochia: 100
[9]; Postemergence, 62 g ai/ha
  Foxtail, Giant plant response rating: 0
[9]; Postemergence, 125 g ai/ha
  Foxtail, Giant plant response rating: 0
[9]; [13]
  Plant response rating, Foxtail, Giant: 0
[9]; [14]
  Plant response rating, Foxtail, Giant: 0
[9]; [15]
  Plant response rating, Foxtail, Giant: 0
[9]; [16]
  Plant response rating, Foxtail, Giant: 0
[9]; [17]
  Plant response rating, Foxtail, Giant: 0
[9]; [18]
  Plant response rating, Foxtail, Giant: 65
[10]; Postemergence, 62 g ai/ha
  Morningglory plant response rating: 50
[10]; Postemergence, 125 g ai/ha
  Morningglory plant response rating: 70
[10]; [13]
  Plant response rating, Morningglory: 80
[10]; [14]
  Plant response rating, Morningglory: 100
[10]; [15]
  Plant response rating, Morningglory: 90
[10]; [16]
  Plant response rating, Morningglory: 95
[10]; [17]
  Plant response rating, Morningglory: 100
[10]; [18]
  Plant response rating, Morningglory: 100
[11]; [19]
  Plant response rating, Nightshade: 95
[11]; 125 g ai/ha, scale 0 to 100
  Plant response rating, Nightshade: 100
[11]; 250 g ai/ha, scale 0 to 100
  Plant response rating, Nightshade: 100
[11]; 500 g ai/ha, scale 0 to 100
  Plant response rating, Nightshade: 100
[12]; Postemergence, 62 g ai/ha
  Soybean plant response rating: 95
[12]; Postemergence, 125 g ai/ha
  Soybean plant response rating: 95
[12]; [13]
  Plant response rating, Soybean: 95
[12]; [14]
  Plant response rating, Soybean: 100
[12]; [15]
  Plant response rating, Soybean: 0
[12]; [16]
  Plant response rating, Soybean: 70
[12]; [17]
  Plant response rating, Soybean: 90
[12]; [18]
  Plant response rating, Soybean: 90
